Experimental data from patent US20250213496A1, “LIPID NANOPARTICLES AND PREPARATION METHODS AND USE THEREOF” (priority 2022, published 2025).

Experiment: HPLC quantification of retinoid compound in LNP (encapsulation efficiency)
Format: physicochemical
Conditions: HPLC after diluting LNP with ethanol; AM80 275 nm, ATRA 350 nm
Description: The content of the retinoid compound in the LNP is determined by high performance liquid chromatography (HPLC), including: preparing a gradient dilution standard solution of ATRA or AM80, establishing the HPLC method, sequentially injecting 100 μL of different concentrations of the standard solution, and plotting the standard curve by using the ultraviolet absorption peak areas of different concentrations of ATRA or AM80. The five-component LNP is broken by ethanol with a volume more than 10 times the volume of the LNP, and the volume of each injection is controlled to be 100 μL; the peak area is substituted into the standard curve to obtain the content of ATRA or AM80 in the lipid solution.
Chromatographic conditions: Sunfire C18 column (150 mm×4.6 mm, 5 μm), column temperature (25° C.), mobile phase A (acetonitrile), mobile phase B (0.1 M triethylamine acetate buffer solution with a pH of 7.0), flow rate of 1.0 mL/min, and injection volume of 100 μL each time.
The standard solutions of AM80 with different concentrations were prepared with ethanol, and HPLC injection and gradient elution were performed. […] After diluting LNP with the ethanol, HPLC injection was performed, the AM80 content in the LNP solution was quantified according to the absorption peak area at 275 nm, and an encapsulation efficiency of AM80 is 45%-65%. […]

Structure (SMILES) | encapsulation efficiency of retinoid compound in LNP
CC1(C)CCC(C)(C)c2cc(NC(=O)c3ccc(C(=O)O)cc3)ccc21 [AM80, tamibarotene] | 45%-65
CC1=C(/C=C/C(C)=C/C=C/C(C)=C/C(=O)O)C(C)(C)CCC1 [ATRA, all-trans-retinoic acid] | 40%-70
